Experimental data from article doi:10.1101/2025.05.09.652710v1 (bioRxiv, 2025).

Columns and labels:
TMPRSS2 = TMPRSS2 (Homo sapiens, UniProt O15393, Q253D/R252D/R255K/S251D/S254D); assay: Fluorogenic kinetic enzyme inhibitor assay, TMPRSS2; type: biochemical
HGFA = biological target: T1, HGFA (Homo sapiens, UniProt Q04756); assay: Fluorogenic kinetic enzyme inhibitor assay, HGFA; type: biochemical
T1 sequence (Q04756 373-655): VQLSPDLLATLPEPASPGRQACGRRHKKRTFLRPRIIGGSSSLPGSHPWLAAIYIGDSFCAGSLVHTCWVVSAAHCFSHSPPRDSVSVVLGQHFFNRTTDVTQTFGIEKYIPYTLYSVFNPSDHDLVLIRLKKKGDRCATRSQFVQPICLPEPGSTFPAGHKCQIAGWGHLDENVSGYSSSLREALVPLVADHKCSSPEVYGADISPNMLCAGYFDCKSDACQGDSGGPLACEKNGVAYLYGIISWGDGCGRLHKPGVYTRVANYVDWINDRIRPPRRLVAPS

thrombin = thrombin (Homo sapiens, UniProt P00734); assay: Chromogenic kinetic enzyme assay, thrombin; type: biochemical
[1] = test system: influenza A virus strain A/California/4/2009 (pdmH1N1); settings: for H1N1 titer Log fold reduction (1 μM): virus strain A/California/4/2009 (pdmH1N1, 72 h, 1 μM); for H1N1 titer Log fold reduction (10 μM): virus strain A/California/4/2009 (pdmH1N1, 72 h, 10 μM)
matriptase = biological target: T2, matriptase (Homo sapiens, UniProt Q9Y5Y6); assay: Fluorogenic kinetic enzyme inhibitor assay, matriptase; type: biochemical
T2 sequence (Q9Y5Y6 615-855): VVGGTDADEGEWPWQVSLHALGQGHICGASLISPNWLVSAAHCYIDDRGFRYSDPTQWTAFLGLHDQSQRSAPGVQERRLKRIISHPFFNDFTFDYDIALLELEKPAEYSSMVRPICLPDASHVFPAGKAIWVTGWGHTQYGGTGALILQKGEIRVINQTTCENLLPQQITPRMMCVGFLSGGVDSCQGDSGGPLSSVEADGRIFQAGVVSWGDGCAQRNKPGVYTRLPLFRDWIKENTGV

hepsin = hepsin (Homo sapiens, UniProt P05981); assay: Fluorogenic kinetic enzyme inhibitor assay, hepsin; type: biochemical
hepsin, sequence (P05981 163-417 limits assumed): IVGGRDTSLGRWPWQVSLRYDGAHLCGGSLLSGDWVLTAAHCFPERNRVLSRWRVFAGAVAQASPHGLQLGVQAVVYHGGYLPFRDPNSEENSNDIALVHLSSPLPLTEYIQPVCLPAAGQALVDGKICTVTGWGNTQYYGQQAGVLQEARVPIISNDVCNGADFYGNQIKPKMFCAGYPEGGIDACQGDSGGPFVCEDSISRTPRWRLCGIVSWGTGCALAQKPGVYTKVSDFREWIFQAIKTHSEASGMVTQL
hepsin, sequence (P05981 45-162 partner limits assumed): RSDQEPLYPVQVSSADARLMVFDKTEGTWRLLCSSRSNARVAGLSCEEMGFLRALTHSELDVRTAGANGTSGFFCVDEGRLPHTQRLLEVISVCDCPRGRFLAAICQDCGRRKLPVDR

[2] = test system: chimeric VSV SARS-CoV-2 virus; settings: for EC50: chimeric VSV virus

TMPRSS2, sequence (O15393 109-492 S251D/R252D/Q253D/S254D/R255K limits assumed): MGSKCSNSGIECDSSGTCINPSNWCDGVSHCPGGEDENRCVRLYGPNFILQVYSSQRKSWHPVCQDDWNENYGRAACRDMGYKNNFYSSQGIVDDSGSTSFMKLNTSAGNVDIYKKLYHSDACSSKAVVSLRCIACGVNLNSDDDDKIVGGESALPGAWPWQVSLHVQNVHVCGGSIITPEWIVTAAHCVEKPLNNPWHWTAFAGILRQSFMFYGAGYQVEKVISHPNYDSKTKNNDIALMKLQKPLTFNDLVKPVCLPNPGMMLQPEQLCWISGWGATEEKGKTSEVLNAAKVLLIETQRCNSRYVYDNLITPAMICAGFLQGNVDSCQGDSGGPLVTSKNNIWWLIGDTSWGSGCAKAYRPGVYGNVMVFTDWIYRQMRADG

Row | SMILES | IC50 (TMPRSS2) [nM] | IC50 (HGFA) [nM] | IC50 (thrombin) [nM] | H1N1 Fold inhibition @ 0.1 μM [1] | H1N1 Fold inhibition @ 1 μM [1] | H1N1 Fold inhibition @ 10 μM [1] | H1N1 titer Log fold reduction (1 μM) [1] | H1N1 titer Log fold reduction (10 μM) [1] | EC50 [2] [nM] | also measured
1 | N=C(N)NCCC[C@H](NC(=O)[C@H](Cc1ccccc1)NC(=O)[C@H](CCC(N)=O)NC(=O)Cc1ccccc1)C(=O)c1nc2ccccc2s1 [CA1018, PhAc-QFR-kbt] | 0.41 |  |  |  |  |  |  |  |  | 
2 | N=C(N)NCCC[C@H](NC(=O)[C@H](Cc1ccccc1)NC(=O)[C@H](CCC(N)=O)NS(=O)(=O)Cc1ccccc1)C(=O)c1nc2ccccc2s1 [MF1105, BnSO2-QFR-kbt] | 0.07 | 6.5 | > 20000 |  |  |  |  |  |  | 
3 | CC[C@H](C)[C@H](NC(C)=O)C(=O)N[C@@H](CCC(=O)O)C(=O)N[C@@H](Cc1ccccc1)C(=O)N[C@H](CCCNC(=N)N)C(=O)c1nc2ccccc2s1 [MM4037-1, Ac-IEFdR-kbt] | 0.38 | > 20000 | > 20000 |  |  |  |  |  |  | 
4 | N=C(N)NCCC[C@H](NC(=O)[C@H](Cc1ccccc1)NC(=O)[C@H](CCC(N)=O)NC(=O)OCc1ccccc1)C(=O)c1nc2ccccc2s1 [ZFH9141, Cbz-QFR-kbt] | 0.42 | 85 |  | 483 | 578 | 578 | 2.8 | 2.8 |  | H1N1 Fold inhibition @ 0.001 μM [1]: 2; H1N1 Fold inhibition @ 0.01 μM [1]: 6
5 | CC[C@H](C)[C@H](NC(C)=O)C(=O)N[C@@H](CCSC)C(=O)N[C@@H](Cc1ccccc1)C(=O)N[C@@H](CCCNC(=N)N)C(=O)c1nc2ccccc2s1 [MM4027, Ac-IMFR-kbt] | 3 |  | > 20000 |  |  |  |  |  | 92 | IC50 (matriptase): 0.51 nM; IC50 (hepsin): 1.3 nM
6 | CC[C@H](C)[C@H](NC(C)=O)C(=O)N[C@H](C(=O)N[C@@H](Cc1ccccc1)C(=O)N[C@@H](CCCNC(=N)N)C(=O)c1nc2ccccc2s1)[C@@H](C)O [MM4028, Ac-ITFR-kbt] | 0.06 | 182 | > 20000 |  |  |  |  |  | 103 | IC50 (matriptase): 4.7 nM; IC50 (hepsin): 0.86 nM
7 | CC(=O)N1CCC[C@H]1C(=O)N[C@@H](CCC(N)=O)C(=O)N[C@@H](Cc1ccccc1)C(=O)N[C@@H](CCCNC(=N)N)C(=O)c1nc2ccccc2s1 [MM3123, Ac-PQFR-kbt] | 0.06 |  |  |  |  |  | 1.3 | 2.6 | 0.86 | VSV SARS-CoV-2 Chimera EC50 [2]: below nM
8 | CSCC[C@H](NC(C)=O)C(=O)N[C@@H](CCC(N)=O)C(=O)N[C@@H](Cc1ccccc1)C(=O)N[C@@H](CCCNC(=N)N)C(=O)c1nc2ccccc2s1 [MM3130, Ac-MQFR-kbt] | 0.14 |  |  | 1 | 27 | 510 | 1.4 | 2.7 | 48 | 
9 | CC(=O)N[C@@H](Cc1c[nH]c2ccccc12)C(=O)N[C@@H](CC(C)C)C(=O)N[C@@H](Cc1ccccc1)C(=O)N[C@@H](CCCNC(=N)N)C(=O)c1nc2ccccc2s1 [ZFH7064, Ac-WLFR-kbt] | 0.09 |  |  |  |  |  |  |  |  | 
10 | N=C(N)NCCC[C@H](NC(=O)[C@H](Cc1ccccc1)NC(=O)[C@H](CCC(N)=O)NCc1ccccc1)C(=O)c1nc2ccccc2s1 [CA1022, Bn-QFR-kbt] | 0.99 |  |  |  |  |  |  |  |  | 
11 | CC[C@H](C)[C@H](NC(C)=O)C(=O)N[C@@H](CCSC)C(=O)N[C@@H](Cc1ccccc1)C(=O)N[C@H](CCCNC(=N)N)C(=O)c1nc2ccccc2s1 [MM4027-1, Ac-IMFdR-kbt] | 5.63 | 234 | > 20000 |  |  |  |  |  |  | IC50 (matriptase): 16.1 nM; IC50 (hepsin): 3.16 nM
12 | N=C(N)NCCC[C@H](NC(=O)[C@H](Cc1ccccc1)NC(=O)[C@H](CCC(N)=O)NCCc1ccccc1)C(=O)c1nc2ccccc2s1 [CA1033, PhCH2CH2-QFR-kbt] | 0.32 |  |  |  |  |  |  |  |  | 
13 | CC(=O)N1CCC[C@H]1C(=O)N[C@@H](CO)C(=O)N[C@@H](CCCCN)C(=O)N[C@@H](CCCNC(=N)N)C(=O)c1nc2ccccc2s1 [MM3194, Ac-PSKR-kbt] | 0.29 |  | > 20000 | 1 | 1 | 4 | 0 | 0.60 | 613 | 
14 | N=C(N)NCCC[C@H](NC(=O)[C@H](Cc1ccccc1)NC(=O)[C@H](CCC(N)=O)NS(=O)(=O)c1ccccc1)C(=O)c1nc2ccccc2s1 [MF1101, PhSO2-QFR-kbt] | 1 | 17 |  | 4 | 1014 | 1321 | 2.9 | 3.3 |  | H1N1 Fold inhibition @ 0.001 μM [1]: 1; H1N1 Fold inhibition @ 0.01 μM [1]: 1
15 | CC(=O)N[C@@H](CC(C)C)C(=O)N[C@@H](CCC(N)=O)C(=O)N[C@@H](Cc1ccccc1)C(=O)N[C@@H](CCCNC(=N)N)C(=O)c1nc2ccccc2s1 [MM3131, Ac-LQFR-kbt] | 0.03 |  |  |  |  |  |  |  | 11 | 
16 | N=C(N)NCCC[C@H](NC(=O)[C@H](Cc1ccccc1)NC(=O)[C@H](CCC(N)=O)NC(=O)c1ccccc1)C(=O)c1nc2ccccc2s1 [CA1043, Bz-QFR-kbt] | 0.08 |  |  | 5 | 968 | 774 | 3.1 | 3.0 |  | H1N1 Fold inhibition @ 0.001 μM [1]: 1; H1N1 Fold inhibition @ 0.01 μM [1]: 1
17 | CN(C)[C@@H](CCC(N)=O)C(=O)N[C@@H](Cc1ccccc1)C(=O)N[C@@H](CCCNC(=N)N)C(=O)c1nc2ccccc2s1 [CA1041, Dimethyl-QFR-kbt] | 0.86 |  |  |  |  |  |  |  |  | 
18 | N=C(N)NCCC[C@H](NC(=O)[C@H](Cc1ccccc1)NC(=O)[C@H](CCC(N)=O)N1CCCCC1)C(=O)c1nc2ccccc2s1 [CA1046, Pip-QFR-kbt] | 8.2 |  |  |  |  |  |  |  |  | 
19 | CS(=O)(=O)N[C@@H](CCC(N)=O)C(=O)N[C@@H](Cc1ccccc1)C(=O)N[C@@H](CCCNC(=N)N)C(=O)c1nc2ccccc2s1 [MF1099, MeSO2-QFR-kbt, reference compound] |  | 341 |  |  |  |  |  |  |  | 
20 | N=C(N)NCCC[C@H](NC(=O)[C@H](Cc1ccccc1)NC(=O)[C@H](CCC(N)=O)NS(=O)(=O)C1CC1)C(=O)c1nc2ccccc2s1 [MF1104, CypSO2-QFR-kbt] | 0.27 | 4.2 |  | 1 | 617 | 916 | 2.9 | 3.0 |  | H1N1 Fold inhibition @ 0.001 μM [1]: 1; H1N1 Fold inhibition @ 0.01 μM [1]: 2
21 | CC[C@H](C)[C@H](NC(C)=O)C(=O)N[C@H](C(=O)N[C@@H](Cc1ccccc1)C(=O)N[C@H](CCCNC(=N)N)C(=O)c1nc2ccccc2s1)[C@@H](C)O [MM4028-1, Ac-ITFdR-kbt] | 1.42 | 1120 | > 20000 |  |  |  |  |  |  | 
22 | CC(=O)NCC(=O)N[C@@H](CCC(N)=O)C(=O)N[C@@H](Cc1ccccc1)C(=O)N[C@@H](CCCNC(=N)N)C(=O)c1nc2ccccc2s1 [MM3122, Ac-GQFR-kbt] | 0.03 |  |  | 27.5 | 2216 | 2952 | 3.4 | 4.3 | 0.43 | VSV SARS-CoV-2 Chimera EC50 [2]: below nM; H1N1 Fold inhibition @ 0.001 μM [1]: 2.1; H1N1 Fold inhibition @ 0.01 μM [1]: 4.2
